Assay results as given in patent US20250326792A1, “A FORMULATION FOR TREATMENT OF PIGMENTARY DISORDERS” (priority 2022, published 2025).
PHPP = 3-Phenylpyrazolo[3,4-d]pyrimidine (N-terminal cap)

Columns and labels:
[1] = tested on: B16F10 cells; test: Cell viability (XTT assay) in B16F10 cells; format: cell-based; settings: 1000 μg/ml for about 48 hours
Method: Culture and maintenance of cell lines: B16F10 cells were cultured in RPMI containing 10% fetal bovine serum, 100 units per millilitre (U/mL) penicillin, 0.1 mg/mL streptomycin, and 0.25 microgram per millilitre (μg/mL) amphotericin B at 37 degrees Celsius in a humidified 95% air/5% CO2 incubator. Drug treatment was done 24 hours after seeding. Cells were harvested 48 hours later and melanin content and tyrosinase activity determined in triplicate. […] […]
B16F10 and NHEM cells were sub-cultured into 96-well culture plates at a density of 1×10^4 cells/well in 100 μL medium and after about 24 hours of incubation, the medium was discarded and replaced with 100 μL of a suitable medium (RPMI for B16F10 and DMEM for NHEM with 1% FBS) for starvation and then treated in the presence or absence of various concentrations of test compound and positive controls (IBMX and α-MSH). […] At the end of the incubation, about 50 μL of XTT test solution prepared by mixing about 5 mL of XTT-labeling reagent and about 100 μL of electron coupling reagent is added to each well and after about 4 hours of incubation at 37° C. and a about 5% CO2 incubator, the absorbance was measured on an ELISA reader at a test wavelength of 490 nm.

[2] = tested on: B16F10 cells; test: Melanin content assay in B16F10 cells; format: cell-based; settings: for % increase in melanin content compared to control / Fold change in melanin content: B16F10 CELLS
Method: (§1) Culture and maintenance of cell lines: B16F10 cells were cultured in RPMI containing 10% fetal bovine serum, 100 units per millilitre (U/mL) penicillin, 0.1 mg/mL streptomycin, and 0.25 microgram per millilitre (μg/mL) amphotericin B at 37 degrees Celsius in a humidified 95% air/5% CO2 incubator. Drug treatment was done 24 hours after seeding. Cells were harvested 48 hours later and melanin content and tyrosinase activity determined in triplicate. NHEM cells were cultured in DMEM containing 10% fetal bovine serum, 100 units per milliliter (U/mL) penicillin, 0.1 mg/mL streptomycin, and 0.25 microgram per millilitre (μg/mL) amphotericin B at 37 degrees Celsius in a humidified 95% air/5% CO2 incubator. Drug treatment was done 24 hours after seeding. Cells were harvested 48 hours later and melanin content and tyrosinase activity determined in triplicate.
(§2) IS103 was dissolved in water for injection or DMSO to prepare stock solution of about 50 mg/ml. The stock solution was used for preparation of subsequent dilutions in solvent to achieve working dilutions for treatment ranging 0.1 μg/ml to 1000 μg/ml.
Cells were seeded in a 6-well plate (2×10^4 cells/well) and incubated overnight to allow the cells to adhere. After treating with various test samples for 4 or 5 days, cells were washed with phosphate-buffered saline (PBS), trypsinized, counted, and then lysed in 1 N NaOH at 100° C. for about 1 hour. The melanin content in each sample was calculated by comparison of absorbance at 400 nm of unknown samples with a standard curve obtained using synthetic melanin. […] B16F10 and NHEM cells were treated with different concentrations of IS103 ranging from 0.1 to 1000 μg/ml and analysed melanin contents in cells. […] To assess the toxicity of the IS103 peptide, cell viability was analyzed by MTT assay.

[3] = tested on: NHEM cells; test: Melanin content assay in NHEM cells; format: cell-based, Human; settings: for % increase in melanin content compared to control / Fold change in melanin content: NHEM CELLS
Method: as §1, §2
Cells were seeded in a 6-well plate (2×10^4 cells/well) and incubated overnight to allow the cells to adhere. After treating with various test samples for 4 or 5 days, cells were washed with phosphate-buffered saline (PBS), trypsinized, counted, and then lysed in 1 N NaOH at 100° C. for about 1 hour. The melanin content in each sample was calculated by comparison of absorbance at 400 nm of unknown samples with a standard curve obtained using synthetic melanin. IS103 enhances melanin synthesis in a dose dependent manner without significant toxicity. B16F10 and NHEM cells were treated with different concentrations of IS103 ranging from 0.1 to 1000 μg/ml and analysed melanin contents in cells. It was observed that IS103 was able to enhance pigmentation of B16F10 and NHEM cells in a dose-dependent manner (Table 18 and FIGS. 4 and 5). […] To assess the toxicity of the IS103 peptide, cell viability was analyzed by MTT assay.

[4] = tested on: Tyrosinase; test: Tyrosinase activity assay (L-DOPA) in NHEM cells; format: cell-based, Human; settings: for % increase in tyrosinase activity compared to control / Tyrosinase activity: TYROSINASE ACTIVITY table
Method: as §1, §2
Tyrosinase activity was determined using L-DOPA as a substrate. Briefly, B16F10 and NHEM cells were seeded in a 6-well plate (2×10^4 cells/well) and incubated for overnight. The cells were then treated with or without the test compounds for 46 hours and were washed twice with ice cold PBS and extracted by sonication in 100 μl of 0.1M Tris-HCl buffer (pH 7.2) containing 1% Nonidet P-40, 0.01% SDS, 100 μM phenyl methyl sulfonyl fluoride, and 1 μg/ml aprotinin and then centrifuged at 10,000 g for about 10 minutes at 4° C. The supernatants collected were used for enzyme assay and its protein content was estimated by method of Bradford using BSA as standard. Samples of cell extract supernatant were incubated in duplicate for 1 hour at 37° C. in 1 ml of 0.1M sodium phosphate buffer (pH 7.4) containing 0.1% L-DOPA. The absorbance was then monitored at 450 nm and compared with purified mushroom tyrosinase (Sigma). The standard curve was prepared limiting linearity within the range of experimental value.

[5] = NHEM cells, different concentrations, about 48 hours

## PHPP-Tyr-Arg-Ser-Arg-Lys-Tyr-Ser-Ser-Trp-Tyr-NH2 ({PHPP}-YRSRKYSSWY-NH2) [IS103]
[1]
  effect on cell viability: did not exert any significant effect on cell viability
[2]; 0.1 μg/mL
  % increase in melanin content compared to control: 0%
  Fold change in melanin content: 1.0 ± 0.20
[2]; 1 μg/mL
  % increase in melanin content compared to control: 0%
  Fold change in melanin content: 1.0 ± 0.30
[2]; 10 μg/mL
  % increase in melanin content compared to control: 20%
  Fold change in melanin content: 1.2 ± 0.10
[2]; 50 μg/mL
  % increase in melanin content compared to control: 60%
  Fold change in melanin content: 1.6 ± 0.20
[2]; 100 μg/mL
  % increase in melanin content compared to control: 125%
  Fold change in melanin content: 2.3 ± 0.30
[2]; 250 μg/mL
  % increase in melanin content compared to control: 180%
  Fold change in melanin content: 2.8 ± 0.20
[2]; 500 μg/mL
  % increase in melanin content compared to control: 190%
  Fold change in melanin content: 2.9 ± 0.10
[2]; 1000 μg/mL
  % increase in melanin content compared to control: 176%
  Fold change in melanin content: 2.8 ± 0.30
[2]; B16F10 and NHEM cells, not distinguished
  concentration sufficient to significantly enhance melanin synthesis: 10 µg/mL
[2]; B16F10 cells, different concentrations, about 48 hours
  effect on melanin synthesis (FIG. 4): enhanced melanin synthesis in a dose-dependent manner
[3]; 0.1 μg/mL
  % increase in melanin content compared to control: 0%
  Fold change in melanin content: 1.0 ± 0.20
[3]; 1 μg/mL
  % increase in melanin content compared to control: 0%
  Fold change in melanin content: 1.0 ± 0.20
[3]; 10 μg/mL
  % increase in melanin content compared to control: 0%
  Fold change in melanin content: 1.0 ± 0.20
[3]; 50 μg/mL
  % increase in melanin content compared to control: 40%
  Fold change in melanin content: 1.4 ± 0.20
[3]; 100 μg/mL
  % increase in melanin content compared to control: 130%
  Fold change in melanin content: 2.3 ± 0.20
[3]; 250 μg/mL
  % increase in melanin content compared to control: 160%
  Fold change in melanin content: 2.6 ± 0.20
[3]; 500 μg/mL
  % increase in melanin content compared to control: 180%
  Fold change in melanin content: 2.8 ± 0.20
[3]; 1000 μg/mL
  % increase in melanin content compared to control: 165%
  Fold change in melanin content: 2.7 ± 0.20
[3]; [5]
  effect on melanin synthesis (FIG. 5): enhanced melanin synthesis in a dose-dependent manner
[4]; NHEM CELLS, 250 μg/mL
  increase in Tyrosinase activity when compared to control: 55.67%
  % increase in tyrosinase activity compared to control: 55.67%
  Tyrosinase activity: 70.0 ± 2.20
[4]; [5]
  effect on tyrosinase activity (FIG. 7): increased tyrosinase activity
[4]; NHEM CELLS, 0.1 μg/mL
  % increase in tyrosinase activity compared to control: −0.67%
  Tyrosinase activity: 13.7 ± 1.24
[4]; NHEM CELLS, 1 μg/mL
  % increase in tyrosinase activity compared to control: 3.67%
  Tyrosinase activity: 18.0 ± 3.30
[4]; NHEM CELLS, 10 μg/mL
  % increase in tyrosinase activity compared to control: 10.67%
  Tyrosinase activity: 25.0 ± 0.80
[4]; NHEM CELLS, 50 μg/mL
  % increase in tyrosinase activity compared to control: 22.67%
  Tyrosinase activity: 37.0 ± 3.00
[4]; NHEM CELLS, 100 μg/mL
  % increase in tyrosinase activity compared to control: 45.33%
  Tyrosinase activity: 59.7 ± 1.90
[4]; NHEM CELLS, 500 μg/mL
  % increase in tyrosinase activity compared to control: 61%
  Tyrosinase activity: 75.3 ± 2.50
[4]; NHEM CELLS, 1000 μg/mL
  % increase in tyrosinase activity compared to control: 61%
  Tyrosinase activity: 75.3 ± 2.60
